In patent publication US20250171459A1, “2-METHYL-4',5'-DIHYDROSPIRO[PIPERIDINE-4,7'-THIENO[2,3-C]PYRAN] DERIVATIVES AS INHIBITORS OF APOL1 AND METHODS OF USING SAME” (Vertex Pharmaceuticals Incorporated, priority 2022, published 2025):

Target: T1, APOL1 (Homo sapiens, UniProt O14791)
T1 sequence (O14791 1-398 S342G/I384M): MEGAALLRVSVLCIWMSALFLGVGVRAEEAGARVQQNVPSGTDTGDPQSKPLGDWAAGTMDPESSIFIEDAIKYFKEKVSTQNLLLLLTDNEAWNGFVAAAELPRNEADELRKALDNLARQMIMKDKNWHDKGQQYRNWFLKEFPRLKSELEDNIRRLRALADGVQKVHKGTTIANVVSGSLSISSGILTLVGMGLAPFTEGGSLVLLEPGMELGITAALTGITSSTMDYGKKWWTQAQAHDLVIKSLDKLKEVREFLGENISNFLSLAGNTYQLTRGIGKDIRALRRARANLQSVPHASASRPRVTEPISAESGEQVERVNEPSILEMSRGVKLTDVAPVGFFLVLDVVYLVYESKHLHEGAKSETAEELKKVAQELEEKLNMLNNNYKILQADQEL
Assay: MultiTox-Fluor Multiplex Cytotoxicity Assay in tet-inducible APOL1 T-REx-HEK293 cells (cell rescue, ratio of dead to live cells)
Format: cell-based
Settings: tet-inducible transgenic APOL1 T-REx-HEK293 cell lines, 50 ng/mL tet, 24 hours; read-out: IP50 (i.e., IC50 for cell proliferation)
In short: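 T-REx-HEK293 cells with tet-inducible APOL1 were treated with compound (10 μM top, 10-point 3-fold dilution, duplicate) plus 50 ng/mL tetracycline for 24 h at 37° C, in DMEM with 2% tet-free FBS. MultiTox-Fluor protease signals gave a dead/live ratio, normalized to no tet (100% viability) and tet alone (0%).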

Structure (SMILES): C[C@H]1C[C@@]2(CCN1Cc1cnn(CC(O)C3(O)CCOC3)c1)OCCc1c2sc(C(F)(F)F)c1CO (stereo partly shown) [Compound 941]
- IC50: < 0.1 µM

Structure (SMILES): C[C@H]1C[C@@]2(CCN1Cc1cnn(CC(O)CC3(O)CCOC3)c1)OCCc1c2sc(C(F)(F)F)c1CO (stereo partly shown) [Compound 942]
- IC50: < 0.1 µM

Structure (SMILES): C[C@H]1C[C@@]2(CCN1Cc1cnn(CC3(O)CCOCC3)c1)OCCc1c2sc(C(F)(F)F)c1CO [Compound 943, 4-[[4-[[(2′S, 7R)-3-(hydroxymethyl)-2′-methyl-2-(trifluoromethyl)spiro[4,5-dihydrothieno[2,3-c]pyran-7,4′-piperidine]-1′-yl]methyl]pyrazol-1-yl]methyl]tetrahydropyran-4-ol]
- IC50: < 0.1 µM

Structure (SMILES): C[C@H]1C[C@@]2(CCN1Cc1cnn(CC(O)C3CCC3)c1)OCCc1c2sc(C(F)(F)F)c1CO (stereo partly shown) [Compound 944]
- IC50: < 0.1 µM

Structure (SMILES): C[C@H]1C[C@@]2(CCN1Cc1cnn(CC(O)CC3(O)COC3)c1)OCCc1c2sc(C(F)(F)F)c1CO (stereo partly shown) [Compound 945]
- IC50: < 0.1 µM

Structure (SMILES): C[C@H]1C[C@@]2(CCN1Cc1cnn(CC(O)C3CCCOC3)c1)OCCc1c2sc(C(F)(F)F)c1CO (stereo partly shown) [Compound 946]
- IC50: < 0.1 µM

Structure (SMILES): C[C@H]1C[C@@]2(CCN1Cc1cnn(CC3(O)CCS(=O)(=O)CC3)c1)OCCc1c2sc(C(F)(F)F)c1CO [Compound 947]
- IC50: < 0.1 µM

Structure (SMILES): C[C@H]1C[C@@]2(CCN1Cc1cnn(CC3(O)CCC3)c1)OCCc1c2sc(C(F)(F)F)c1CO [Compound 948]
- IC50: < 0.1 µM

Structure (SMILES): C[C@H]1C[C@@]2(CCN1Cc1cnn(CC(O)CC(C)(C)O)c1)OCCc1c2sc(C(F)(F)F)c1CO (stereo partly shown) [Compound 949]
- IC50: < 0.1 µM

Structure (SMILES): C[C@H]1C[C@@]2(CCN1Cc1cnn(CC(O)CC3(C#N)CC3)c1)OCCc1c2sc(C(F)(F)F)c1CO (stereo partly shown) [Compound 950]
- IC50: < 0.1 µM

Structure (SMILES): C[C@H]1C[C@@]2(CCN1Cc1cnn(CC3(O)CCOC3=O)c1)OCCc1c2sc(C(F)(F)F)c1CO (stereo partly shown) [Compound 951]
- IC50: 0.5 to 1 µM

Structure (SMILES): C[C@H]1C[C@@]2(CCN1Cc1cnn(CC3(O)CCCOC3)c1)OCCc1c2sc(C(F)(F)F)c1CO (stereo partly shown) [Compound 952]
- IC50: < 0.1 µM

Structure (SMILES): C[C@H]1C[C@@]2(CCN1Cc1cnn(CC(C)(O)C(F)F)c1)OCCc1c2sc(C(F)(F)F)c1CO (stereo partly shown) [Compound 953]
- IC50: < 0.1 µM

Structure (SMILES): C[C@H]1C[C@@]2(CCN1Cc1cnn(CC3(O)CC(C#N)C3)c1)OCCc1c2sc(C(F)(F)F)c1CO (stereo partly shown) [Compound 954]
- IC50: < 0.1 µM

Structure (SMILES): C[C@H]1C[C@@]2(CCN1Cc1cnn(CC(O)C3(O)CCCC3)c1)OCCc1c2sc(C(F)(F)F)c1CO (stereo partly shown) [Compound 955]
- IC50: < 0.1 µM

Structure (SMILES): CC(C)OC[C@@H](O)Cn1cc(CN2CC[C@]3(C[C@@H]2C)OCCc2c3sc(C(F)(F)F)c2CO)cn1 [Compound 956]
- IC50: < 0.1 µM

Structure (SMILES): CCOCCC(O)Cn1cc(CN2CC[C@]3(C[C@@H]2C)OCCc2c3sc(C(F)(F)F)c2CO)cn1 (stereo partly shown) [Compound 957]
- IC50: < 0.1 µM

Structure (SMILES): COCC(O)Cn1cc(CN2CC[C@]3(C[C@@H]2C)OCCc2c3sc(C(F)(F)F)c2CO)cn1 (stereo partly shown) [Compound 958]
- IC50: < 0.1 µM

Structure (SMILES): C[C@H]1C[C@@]2(CCN1Cc1cnn(CC(O)C3CCOCC3)c1)OCCc1c2sc(C(F)(F)F)c1CO (stereo partly shown) [Compound 959]
- IC50: < 0.1 µM

Structure (SMILES): C[C@H]1C[C@@]2(CCN1Cc1cnn(CC(O)C(C)(C)O)c1)OCCc1c2sc(C(F)(F)F)c1CO (stereo partly shown) [Compound 960]
- IC50: < 0.1 µM

Structure (SMILES): C[C@H]1C[C@@]2(CCN1Cc1cnn(CC(O)CC3(O)CCC3)c1)OCCc1c2sc(C(F)(F)F)c1CO (stereo partly shown) [Compound 961]
- IC50: < 0.1 µM

Structure (SMILES): C[C@H]1C[C@@]2(CCN1Cc1cnn(CC(O)CC3(O)CCCC3)c1)OCCc1c2sc(C(F)(F)F)c1CO (stereo partly shown) [Compound 962]
- IC50: < 0.1 µM

Structure (SMILES): C[C@H]1C[C@@]2(CCN1Cc1cnn(CC(O)CC(C)(C)C#N)c1)OCCc1c2sc(C(F)(F)F)c1CO (stereo partly shown) [Compound 963]
- IC50: < 0.1 µM

Structure (SMILES): C[C@H]1C[C@@]2(CCN1Cc1cnn(CC(O)C3CCCO3)c1)OCCc1c2sc(C(F)(F)F)c1CO (stereo partly shown) [Compound 964]
- IC50: < 0.1 µM

Structure (SMILES): C[C@H]1C[C@@]2(CCN1Cc1cnn(CC(O)c3ccnn3C)c1)OCCc1c2sc(C(F)(F)F)c1CO (stereo partly shown) [Compound 965]
- IC50: < 0.1 µM

Structure (SMILES): COCCOCC(O)Cn1cc(CN2CC[C@]3(C[C@@H]2C)OCCc2c3sc(C(F)(F)F)c2CO)cn1 (stereo partly shown) [Compound 966]
- IC50: < 0.1 µM

Structure (SMILES): COCCC(O)Cn1cc(CN2CC[C@]3(C[C@@H]2C)OCCc2c3sc(C(F)(F)F)c2CO)cn1 (stereo partly shown) [Compound 967]
- IC50: < 0.1 µM

Structure (SMILES): C[C@H]1C[C@@]2(CCN1Cc1cnn(C[C@H](O)CO)c1)OC[C@@H](O)c1cc(C(F)(F)F)sc12 [Compound 968]
- IC50: < 0.1 µM

Structure (SMILES): C[C@H]1C[C@@]2(CCN1Cc1cnn(C[C@@H](O)CO)c1)OC[C@@H](O)c1cc(C(F)(F)F)sc12 [Compound 969]
- IC50: < 0.1 µM

Structure (SMILES): C[C@H]1C[C@@]2(CCN1Cc1cnn(CC(O)C(N)=O)c1)OC[C@@H](O)c1cc(C(F)(F)F)sc12 (stereo partly shown) [Compound 970]
- IC50: < 0.1 µM

Structure (SMILES): C[C@H]1C[C@@]2(CCN1Cc1cnn(CC(O)C3(O)CCOC3)c1)OC[C@@H](O)c1cc(C(F)(F)F)sc12 (stereo partly shown) [Compound 971]
- IC50: < 0.1 µM

Structure (SMILES): C[C@H]1C[C@@]2(CCN1Cc1cnn(CC(C)(O)CO)c1)OC[C@@H](O)c1cc(C(F)(F)F)sc12 (stereo partly shown) [Compound 972]
- IC50: < 0.1 µM

Structure (SMILES): C[C@H]1C[C@@]2(CCN1Cc1cnn(CC(O)CC3(C#N)CC3)c1)OC[C@@H](O)c1cc(C(F)(F)F)sc12 (stereo partly shown) [Compound 973]
- IC50: < 0.1 µM

Structure (SMILES): C[C@H]1C[C@@]2(CCN1Cc1cnn(CC3(O)CCS(=O)(=O)CC3)c1)OC[C@@H](O)c1cc(C(F)(F)F)sc12 [Compound 974]
- IC50: < 0.1 µM

Structure (SMILES): C[C@H]1C[C@@]2(CCN1Cc1cnn(CC(O)CC3(O)COC3)c1)OC[C@@H](O)c1cc(C(F)(F)F)sc12 (stereo partly shown) [Compound 975]
- IC50: < 0.1 µM

Structure (SMILES): C[C@H]1C[C@@]2(CCN1Cc1cnn(CC(O)CC3(O)CCC3)c1)OC[C@@H](O)c1cc(C(F)(F)F)sc12 (stereo partly shown) [Compound 976]
- IC50: < 0.1 µM

Structure (SMILES): C[C@H]1C[C@@]2(CCN1Cc1cnn(CC(O)CC(C)(C)O)c1)OC[C@@H](O)c1cc(C(F)(F)F)sc12 (stereo partly shown) [Compound 977]
- IC50: < 0.1 µM

Structure (SMILES): C[C@H]1C[C@@]2(CCN1Cc1cnn(CC(O)C3(O)CCOCC3)c1)OC[C@@H](O)c1cc(C(F)(F)F)sc12 (stereo partly shown) [Compound 978]
- IC50: < 0.1 µM

Structure (SMILES): C[C@H]1C[C@@]2(CCN1Cc1cnn(CC(O)C3(O)CCC3)c1)OC[C@@H](O)c1cc(C(F)(F)F)sc12 (stereo partly shown) [Compound 979]
- IC50: < 0.1 µM

Structure (SMILES): CC(=CC(O)Cn1cc(CN2CC[C@]3(C[C@@H]2C)OC[C@@H](O)c2cc(C(F)(F)F)sc23)cn1)C1CC1 (stereo partly shown) [Compound 980]
- IC50: 0.1 to 0.5 µM

Structure (SMILES): C[C@H]1C[C@@]2(CCN1Cc1cnn(CC3CC4(CC4)C(=O)O3)c1)OCCc1c2sc(C(F)(F)F)c1CO (stereo partly shown) [Compound 981]
- IC50: < 0.1 µM

Structure (SMILES): C[C@H]1C[C@@]2(CCN1Cc1cnn(CC3CC4(CCC4)C(=O)O3)c1)OCCc1c2sc(C(F)(F)F)c1CO (stereo partly shown) [Compound 982]
- IC50: < 0.1 µM

Structure (SMILES): C[C@H]1C[C@@]2(CCN1Cc1cnn(CC3CC(C)(C)C(=O)O3)c1)OCCc1c2sc(C(F)(F)F)c1CO (stereo partly shown) [Compound 983]
- IC50: < 0.1 µM

Structure (SMILES): C[C@H]1C[C@@]2(CCN1Cc1cnn(CC3CC4(CCOCC4)C(=O)O3)c1)OCCc1c2sc(C(F)(F)F)c1CO (stereo partly shown) [Compound 984]
- IC50: < 0.1 µM

Structure (SMILES): C[C@H]1C[C@@]2(CCN1Cc1cnn(C[C@@H](O)C(N)=O)c1)OCCc1c2sc(C(F)(F)F)c1CO [Compound 985, (2R)-2-hydroxy-3-[4-[[(2′S, 7R)-3-(hydroxymethyl)-2′-methyl-2-(trifluoromethyl)spiro[4,5-dihydrothieno[2,3-c]pyran-7,4′-piperidine]-1′-yl]methyl]pyrazol-1-yl]propanamide]
- IC50: < 0.1 µM

Structure (SMILES): CNC(=O)[C@H](O)Cn1cc(CN2CC[C@]3(C[C@@H]2C)OCCc2c3sc(C(F)(F)F)c2CO)cn1 [Compound 986, (2R)-2-hydroxy-3-[4-[[(2′S, 7R)-3-(hydroxymethyl)-2′-methyl-2-(trifluoromethyl)spiro[4,5-dihydrothieno[2,3-c]pyran-7,4′-piperidine]-1′-yl]methyl]pyrazol-1-yl]-N-methyl-propanamide]
- IC50: < 0.1 µM

Structure (SMILES): C[C@H]1C[C@@]2(CCN1Cc1cnn(C[C@@H](O)C(=O)N(C)C)c1)OCCc1c2sc(C(F)(F)F)c1CO [Compound 987, (2R)-2-hydroxy-3-[4-[[(2′S, 7R)-3-(hydroxymethyl)-2′-methyl-2-(trifluoromethyl)spiro[4,5-dihydrothieno[2,3-c]pyran-7,4′-piperidine]-1′-yl]methyl]pyrazol-1-yl]-N,N-dimethyl-propanamide]
- IC50: < 0.1 µM

Structure (SMILES): CCOC(=O)C(C)(O)Cn1cc(CN2CC[C@]3(C[C@@H]2C)OCCc2c3sc(C(F)(F)F)c2CO)cn1 (stereo partly drawn) [Compound 988, Ethyl 2-hydroxy-3-[4-[[(2′S, 7R)-3-(hydroxymethyl)-2′-methyl-2-(trifluoromethyl)spiro[4,5-dihydrothieno[2,3-c]pyran-7,4′-piperidine]-1′-yl]methyl]pyrazol-1-yl]-2-methyl-propanoate]
- IC50: < 0.1 µM

Structure (SMILES): C[C@H]1C[C@@]2(CCN1Cc1cnn(CC(C)(O)C(N)=O)c1)OCCc1c2sc(C(F)(F)F)c1CO (stereo partly drawn) [Compound 989, 2-Hydroxy-3-[4-[[(2′S, 7R)-3-(hydroxymethyl)-2′-methyl-2-(trifluoromethyl)spiro[4,5-dihydrothieno[2,3-c]pyran-7,4′-piperidine]-1′-yl]methyl]pyrazol-1-yl]-2-methyl-propanamide]
- IC50: < 0.1 µM
